What all share (assay type): in vitro ADME
Holding throughout (set-up): tissue XenoTech LLC; host or cells: pooled human liver microsomes

For data set [1], the target named is T1, UGT1A1 (Homo sapiens, UniProt P22309).
T1 sequence (P22309 26-533): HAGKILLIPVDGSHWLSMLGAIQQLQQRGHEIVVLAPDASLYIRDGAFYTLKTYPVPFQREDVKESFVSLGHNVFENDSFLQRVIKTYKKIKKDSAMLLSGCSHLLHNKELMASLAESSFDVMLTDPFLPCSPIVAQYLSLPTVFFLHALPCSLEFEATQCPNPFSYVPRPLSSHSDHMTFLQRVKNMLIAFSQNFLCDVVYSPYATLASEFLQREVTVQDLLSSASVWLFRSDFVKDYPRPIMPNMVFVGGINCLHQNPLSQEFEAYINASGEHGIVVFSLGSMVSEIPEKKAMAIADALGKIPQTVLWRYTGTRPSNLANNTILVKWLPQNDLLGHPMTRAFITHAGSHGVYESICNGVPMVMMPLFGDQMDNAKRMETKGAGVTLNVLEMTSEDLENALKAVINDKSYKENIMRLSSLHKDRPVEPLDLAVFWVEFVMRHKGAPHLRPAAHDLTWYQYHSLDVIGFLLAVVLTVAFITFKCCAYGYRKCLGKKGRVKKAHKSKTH
Kind of data set: UGT1A1 inhibition in HLM (SN-38 glucuronidation). Particulars: for IC50: UGT1A1, SN-38 glucuronide formation in HLM. Here is the method: (§1) To assess drug-drug interactions (DDIs) potential caused by ticagrelor and ticagrelor-O-Glu through the inhibition of the major human UGTs enzymes, selective UGT probe substrates were co-incubated with ticagrelor or ticagrelor-O-Glu in HLM. The formation of metabolites, SN-38 glucuronide, chenodeoxycholic acid 24-acyl-β-D-glucuronide, trifluoperazine N-glucuronide, N-Acetyl serotonin glucuronide, mycophenolic acid glucuronide and 3′-azide-3′-deoxythymidine β-D-glucuronide, which could reflect the enzyme activities of UGT1A1, UGT1A3, UGT1A4, UGT1A6, UGT1A9 and UGT2B7, respectively, were quantified using LC-MS/MS. Three different concentrations of ticagrelor or ticagrelor-O-Glu (1, 10 and 100 μM) were added to the incubation system in the presence of selective UGT probe substrates (SN-38, chenodeoxycholic acid, trifluoperazine, N-Acetyl serotonin, mycophenolic acid and 3′-azide-3′-deoxythymidine), respectively. The assays were performed as described above. The control was treated with a vehicle solvent only. A triple determination was performed.
(§2) The percent inhibition relative to the control was calculated to indicate the UGTs or CYPs inhibition. For inhibition exceeding 50% of the control activity, nonlinear regression analysis was used to estimate the IC50 values using the GraphPad Prism 6 (GraphPad Software Inc., CA, United States).

Data set [2] concerns the target T2, UGT1A3 (Homo sapiens, UniProt P35503).
T2 sequence (P35503 29-534): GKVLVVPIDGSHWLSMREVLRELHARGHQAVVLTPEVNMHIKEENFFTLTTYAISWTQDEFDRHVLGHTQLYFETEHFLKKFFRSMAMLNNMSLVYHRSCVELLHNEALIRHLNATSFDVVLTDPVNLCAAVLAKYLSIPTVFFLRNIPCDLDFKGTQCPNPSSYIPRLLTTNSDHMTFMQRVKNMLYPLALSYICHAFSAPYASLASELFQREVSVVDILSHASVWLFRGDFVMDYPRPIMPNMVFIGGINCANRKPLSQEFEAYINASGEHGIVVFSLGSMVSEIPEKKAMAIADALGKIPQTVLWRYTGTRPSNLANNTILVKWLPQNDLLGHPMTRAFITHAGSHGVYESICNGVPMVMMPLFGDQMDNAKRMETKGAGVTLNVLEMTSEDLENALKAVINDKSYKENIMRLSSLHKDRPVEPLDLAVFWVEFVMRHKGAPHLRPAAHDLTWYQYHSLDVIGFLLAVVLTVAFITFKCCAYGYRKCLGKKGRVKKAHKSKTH
Nature of the data set: UGT1A3 inhibition in HLM (chenodeoxycholic acid glucuronidation). To be noted: for IC50: UGT1A3, chenodeoxycholic acid 24-acyl-β-D-glucuronide formation in HLM. Here is the method: as §1, §2

The target of data set [3] is T3, UGT1A4 (Homo sapiens, UniProt P22310).
T3 sequence (P22310 29-534): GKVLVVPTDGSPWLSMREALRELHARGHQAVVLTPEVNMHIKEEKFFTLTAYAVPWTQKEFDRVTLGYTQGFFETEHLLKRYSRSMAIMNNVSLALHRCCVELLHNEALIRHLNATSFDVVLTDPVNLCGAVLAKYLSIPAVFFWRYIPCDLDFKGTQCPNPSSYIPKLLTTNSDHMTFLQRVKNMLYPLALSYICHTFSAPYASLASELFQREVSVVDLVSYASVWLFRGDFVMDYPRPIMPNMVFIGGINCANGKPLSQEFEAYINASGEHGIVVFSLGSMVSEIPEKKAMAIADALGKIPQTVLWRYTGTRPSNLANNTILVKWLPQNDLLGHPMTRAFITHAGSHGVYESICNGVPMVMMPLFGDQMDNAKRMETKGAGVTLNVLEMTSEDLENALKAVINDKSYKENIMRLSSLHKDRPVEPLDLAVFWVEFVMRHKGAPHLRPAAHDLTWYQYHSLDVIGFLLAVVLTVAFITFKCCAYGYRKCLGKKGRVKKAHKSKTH
Nature of the data set: UGT1A4 inhibition in HLM (trifluoperazine N-glucuronidation). To be noted: for inhibitory effect on UGT1A4: HLM, 1, 10 and 100 μM; for IC50: UGT1A4, trifluoperazine N-glucuronide formation in HLM. Here is the method: as §1, §2

For data set [4], the target named is T4, UGT1A9 (Homo sapiens, UniProt O60656).
T4 sequence (O60656 26-530): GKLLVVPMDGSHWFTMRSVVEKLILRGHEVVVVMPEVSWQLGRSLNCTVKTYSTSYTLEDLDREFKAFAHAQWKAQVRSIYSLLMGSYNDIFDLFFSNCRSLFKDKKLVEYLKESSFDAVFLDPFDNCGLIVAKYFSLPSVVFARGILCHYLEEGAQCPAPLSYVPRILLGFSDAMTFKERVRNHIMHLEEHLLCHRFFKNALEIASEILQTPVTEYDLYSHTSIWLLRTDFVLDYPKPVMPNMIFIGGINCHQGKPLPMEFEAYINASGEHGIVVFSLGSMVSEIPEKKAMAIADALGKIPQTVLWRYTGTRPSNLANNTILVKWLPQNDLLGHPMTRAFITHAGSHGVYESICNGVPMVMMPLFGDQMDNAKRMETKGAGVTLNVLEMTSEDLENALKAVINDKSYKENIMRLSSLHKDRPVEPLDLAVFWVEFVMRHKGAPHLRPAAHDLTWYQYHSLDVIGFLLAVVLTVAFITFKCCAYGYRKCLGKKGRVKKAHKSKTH
Kind of data set: UGT1A9 inhibition in HLM (mycophenolic acid glucuronidation). Particulars: for IC50: UGT1A9, mycophenolic acid glucuronide formation in HLM; for inhibition at 100 µM: human, human liver microsomes (HLM), probe mycophenolic acid, HLM, 100 μM test compound. Here is the method:
as §1, §2

The mark [5] stands for this setting: HLM, concentration up to 100 μM.

`CCCSc1nc(N[C@@H]2C[C@H]2c2ccc(F)c(F)c2)c2nnn([C@@H]3C[C@H](OCCO[C@@H]4O[C@H](C(=O)O)[C@@H](O)[C@H](O)[C@H]4O)[C@@H](O)[C@H]3O)c2n1` [Ticagrelor-O-Glu, ticagrelor-O-glucuronide]: the “inhibitory effect on UGT1A1” value in data set [1] (setting [5]) was “no significant inhibitory effects”. Also, the IC50 in data set [1] was over 100 µM; in data set [2] it was over 100 µM; in data set [3], over 100 µM; in data set [4], about 100 µM. For the same molecule, the “inhibitory effect on UGT1A3” value in data set [2] (setting [5]) is given as “no significant inhibitory effects”. In addition, the “inhibitory effect on UGT1A4” value in data set [3] was “no significant inhibitory effects”. In addition, the inhibition at 100 µM in data set [4] worked out at 61.4%.
As for `CCCSc1nc(N[C@@H]2C[C@H]2c2ccc(F)c(F)c2)c2nnn([C@@H]3C[C@H](OCCO)[C@@H](O)[C@H]3O)c2n1` [Ticagrelor], the 50% inhibitory concentration (IC50) in data set [1] was about 100 µM; in data set [2], over 100 µM; in data set [3], over 100 µM; in data set [4], over 100 µM. Also, the inhibition at 100 µM is 56.8% in data set [1] (human, human liver microsomes (HLM), probe SN-38, HLM, 100 μM test compound); 24.5% in data set [2] (human, human liver microsomes (HLM), probe chenodeoxycholic acid, HLM, 100 μM test compound); 13.3% in data set [4]. In addition, the “inhibitory effect on UGT1A4” value in data set [3] is given as “No significant inhibitory effect”.

The values above are taken from publication PMC8552062, “Contributions of UDP-Glucuronosyltransferases to Human Hepatic and Intestinal Metabolism of Ticagrelor and Inhibition of UGTs and Cytochrome P450 Enzymes by Ticagrelor and its Glucuronidated Metabolite” (Frontiers in Pharmacology, 2021).
